Reference: ChEMBL document CHEMBL1154710, “Synthesis, anti-inflammatory and anticancer activity evaluation of some novel acridine derivatives” (2010)

Columns and labels:
Format in all cases: functional
Rattus norvegicus = assay: Antiinflammatory activity in albino Charles-Foster rat assessed as inhibition of carrageenan-induced paw oedema at 50 mg/kg, po administered 30 mins before carrageenan challenge […] after 1-3 hrs relative to control; parameters: scale not given: the % may be the effect or the level left
MCF7 = assay: Growth inhibition of human MCF7 cells at 10 uM after 48 hrs by SRB assay; settings: MCF7, 48 h, read-out: GI
HEp-2 = assay: Growth inhibition of human Hep2 cells at 10 uM after 48 hrs by SRB assay; settings: HEp-2, 48 h, read-out: GI
COLO 205 = assay: Growth inhibition of human COLO205 cells at 10 uM after 48 hrs by SRB assay; settings: COLO 205, 48 h, read-out: GI
[1] = Growth inhibition of human 502713 cells at 10 uM after 48 hrs by SRB assay; settings: Homo sapiens, 502713, 48 h; read-out: GI
HCT-15 = assay: Growth inhibition of human HCT15 cells at 10 uM after 48 hrs by SRB assay; settings: HCT-15, 48 h, read-out: GI
A549 = assay: Growth inhibition of human A549 cells at 10 uM after 48 hrs by SRB assay; settings: A549, 48 h, read-out: GI
IMR-32 = assay: Growth inhibition of human IMR32 cells at 10 uM after 48 hrs by SRB assay; settings: IMR-32, 48 h, read-out: GI
OVCAR-5 = assay: Growth inhibition of human OVCAR5 cells at 10 uM after 48 hrs by SRB assay; settings: OVCAR-5, 48 h, read-out: GI
DU-145 = assay: Growth inhibition of human DU145 cells at 10 uM after 48 hrs by SRB assay; settings: DU-145, 48 h, read-out: GI
PC-3 = assay: Growth inhibition of human PC3 cells at 10 uM after 48 hrs by SRB assay; settings: PC-3, 48 h, read-out: GI

Row | Compound | Activity (Rattus norvegicus) [%] | inhibition of growth at 10 µM (MCF7) [%] | inhibition of growth at 10 µM (HEp-2) [%] | inhibition of growth at 10 µM (COLO 205) [%] | inhibition of growth at 10 µM [1] [%] | inhibition of growth at 10 µM (HCT-15) [%] | inhibition of growth at 10 µM (A549) [%] | inhibition of growth at 10 µM (IMR-32) [%] | inhibition of growth at 10 µM (OVCAR-5) [%] | inhibition of growth at 10 µM (DU-145) [%] | inhibition of growth at 10 µM (PC-3) [%]
1 | COc1cccc2c(NCC3CCCO3)c3ccccc3nc12 (racemic) | 0 | 52 | 34 | 66 | 60 | 64 | 56 | 69 |  |  | 
2 | Cc1cccc2c(NCC3CCCO3)c3ccccc3nc12 (racemic) | 34.02 | 45 | 18 | 46 |  |  |  |  | 54 | 17 | 61
3 | CC(=O)O[C@H]1C(=O)[C@@]2(C)[C@H]([C@H](OC(=O)c3ccccc3)[C@]3(O)C[C@H](OC(=O)[C@H](O)[C@@H](NC(=O)c4ccccc4)c4ccccc4)C(C)=C1C3(C)C)[C@]1(OC(C)=O)CO[C@@H]1C[C@@H]2O [PACLITAXEL] |  | 65 | 75 | 61 | 58 | 84 | 51 | 58 |  |  | 
4 | COc1ccc2nc3ccccc3c(NC(=S)NCC3CCCO3)c2c1 (racemic) | 29.57 | 8 | 8 | 20 | 21 | 41 | 24 | 27 |  |  | 
5 | Cc1cccc2c(NC(=S)NCCc3cccs3)c3ccccc3nc12 | 30.7 | 92 | 67 | 19 | 71 |  | 53 | 42 |  |  | 
6 | COc1cccc2c1C(=O)c1c(O)c3c(c(O)c1C2=O)C[C@@](O)(C(=O)CO)C[C@@H]3O[C@H]1C[C@H](N)[C@H](O)[C@H](C)O1 [DOXORUBICIN] |  | 48 | 55 | 34 | 28 | 93 | 44 | 86 |  |  | 
7 | COc1cccc2c(NCCc3cccs3)c3ccccc3nc12 | 26.05 | 37 | 62 | 24 | 67 | 73 | 61 | 78 |  |  | 
8 | Cc1cccc2c(NC(=S)NCC3CCCO3)c3ccccc3nc12 (racemic) | 25.35 | 99 | 14 | 71 | 95 |  | 96 | 21 |  |  | 
9 | COc1ccc2nc3ccccc3c(NCC3CCCO3)c2c1 (racemic) | 20.16 | 42 | 11 | 61 |  |  |  |  | 41 | 9 | 37
10 | COc1ccc2nc3ccccc3c(NCCc3c[nH]c4ccccc34)c2c1 | 31.33 | 42 | 9 | 0 |  |  |  |  | 23 | 25 | 51
11 | Cc1cccc2c(NC(=S)NCCc3c[nH]c4ccccc34)c3ccccc3nc12 | 35.77 | 95 | 96 | 98 | 90 |  | 84 | 67 |  |  | 
12 | COc1ccc2nc3ccccc3c(NCCc3cccs3)c2c1 | 41.17 | 44 | 52 | 69 | 67 | 78 | 20 | 89 |  |  | 
13 | COc1cccc2c(NCc3ccco3)c3ccccc3nc12 | 38.37 | 50 | 54 | 83 | 62 | 71 | 36 | 98 |  |  | 
14 | Cc1cccc2c(NC(=S)NCc3ccco3)c3ccccc3nc12 | 32.33 | 94 | 61 | 88 | 95 |  | 46 | 5 |  |  | 
15 | CC(C)Cc1ccc(C(C)C(=O)O)cc1 (stereo unspecified) [IBUPROFEN] | 39 |  |  |  |  |  |  |  |  |  | 
16 | Cc1cccc2c(NCCc3c[nH]c4ccccc34)c3ccccc3nc12 | 31.03 | 53 | 23 | 69 |  |  |  |  | 51 | 42 | 53
17 | COc1cccc2c(NCCc3c[nH]c4ccccc34)c3ccccc3nc12 | 39.69 | 78 | 75 | 84 | 63 | 91 | 49 | 99 |  |  | 
18 | CO[C@@]12[C@H](COC(N)=O)C3=C(C(=O)C(C)=C(N)C3=O)N1C[C@@H]1N[C@@H]12 [MITOMYCIN] |  |  | 58 | 4 | 44 | 25 | 40 | 85 |  |  | 
19 | O=c1[nH]cc(F)c(=O)[nH]1 [FLUOROURACIL] |  | 0 | 29 | 25 | 40 | 29 | 0 | 58 |  |  | 
20 | COc1ccc2nc3ccccc3c(NC(=S)NCCc3cccs3)c2c1 | 34.08 | 34 | 28 | 35 | 46 | 45 | 42 | 74 |  |  | 
21 | Cc1cccc2c(NCc3ccco3)c3ccccc3nc12 | 0 | 58 | 51 | 72 | 52 | 74 | 52 | 86 |  |  | 
22 | Cc1cccc2c(NCCc3cccs3)c3ccccc3nc12 | 33.09 | 73 | 41 | 79 |  |  |  |  | 6 | 41 | 52
23 | COc1ccc2nc3ccccc3c(NCc3ccco3)c2c1 | 22.96 | 44 | 56 | 88 | 65 | 80 | 35 | 95 |  |  | 
24 | COc1ccc2nc3ccccc3c(NC(=S)NCc3ccco3)c2c1 | 30.98 | 35 | 26 | 23 | 45 | 61 | 37 | 71 |  |  | 
